Drawing on article PMC8041284, “Tunable Methacrylamides for Covalent Ligand Directed Release Chemistry” (Journal of the American Chemical Society, 2021), this text covers inhibition for 53 compounds.

SMILES strings stand for the structures. Like-named read-outs stand apart in the source and are kept apart here.

For this test, the target named is BTK (Homo sapiens, UniProt Q06187). The experiment in a line: biochemical.
Setting [1] is: read-out: BTK inhibition (%), 0.75 uM BTK, […] probe 3l, 15 min preincubation.

Sequence of BTK (Q06187 402-655 limits assumed): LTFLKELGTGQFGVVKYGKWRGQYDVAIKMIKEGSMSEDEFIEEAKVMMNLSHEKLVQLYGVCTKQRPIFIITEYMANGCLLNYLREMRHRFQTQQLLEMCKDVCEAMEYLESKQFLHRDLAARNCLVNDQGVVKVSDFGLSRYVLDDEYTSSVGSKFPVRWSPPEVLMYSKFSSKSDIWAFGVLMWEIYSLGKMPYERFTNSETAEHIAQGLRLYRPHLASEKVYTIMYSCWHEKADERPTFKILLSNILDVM

Take `C=C1CC[C@H]2O[C@]2(C)CC[C@@H]2[C@@H]1CC2(C)C` [PCM-0214945]: the inhibition at 10 µM under setting [1] was -11.7%.

Turning to `CC1(C)[C@@H]2CC[C@@]1(C)[C@@H](O)C2` [PCM-0214946], under setting [1], the inhibition at 10 µM came out at 3.1%.

On to `Oc1ccc(CC2NCCc3cc(O)c(O)cc32)cc1` (centres unmarked) [PCM-0214948], for which the inhibition at 10 µM under setting [1] is -5.4%.

On to `COc1ccc(CC(=O)O)cc1OC` [PCM-0214949], for which the inhibition at 10 µM under setting [1] is -0.8%.

With `OC[C@H]1NC[C@H](O)[C@@H](O)[C@@H]1O` [PCM-0214950], under setting [1], the inhibition at 10 µM was -9.3%.

On to `C[C@@H]1O[C@H]2O[C@H]3[C@@H](OC[C@H](O)[C@@H]3O)OC(=O)[C@]34CCC(C)(C)C[C@H]3C3=CC[C@H]5[C@@]6(C)C[C@H](O)[C@H](O[C@@H]7O[C@H](CO)[C@@H](O)[C@H](O)[C@H]7O[C@@H]7OC[C@H](OC(=O)C[C@](C)(O)CC(=O)O[C@@H]1[C@@H](O[C@@H]1OC[C@@H](O)[C@H](O)[C@H]1O)[C@H]2O)[C@H](O)[C@H]7O)[C@@](C)(CO)[C@@H]6CC[C@@]5(C)[C@]3(C)CC4` [PCM-0214951], for which the inhibition at 10 µM under setting [1] came to 6.2%.

As to `C[C@H](CC[C@@H](O[C@@H]1O[C@H](CO[C@@H]2O[C@H](CO)[C@@H](O)[C@H](O)[C@H]2O)[C@@H](O)[C@H](O)[C@H]1O[C@@H]1O[C@H](CO)[C@@H](O)[C@H](O)[C@H]1O)C(C)(C)O)[C@H]1CC[C@@]2(C)[C@@H]3CC=C4[C@@H](CC[C@H](O[C@@H]5O[C@H](CO[C@@H]6O[C@H](CO)[C@@H](O)[C@H](O)[C@H]6O)[C@@H](O)[C@H](O)[C@H]5O)C4(C)C)[C@]3(C)[C@H](O)C[C@]12C` [PCM-0214952], under setting [1], the inhibition at 10 µM is -2.3%.

With `C/C=C(/C)C(=O)O[C@H]1Cc2cc3ccc(=O)oc3cc2OC1(C)C` [PCM-0214953], under setting [1], the inhibition at 10 µM amounted to 0.8%.

Consider `CN1C2=C3N=c4ccccc4=C3CCN2C(=O)c2ccccc21` [PCM-0214954], for which the inhibition at 10 µM under setting [1] amounted to 7%.

For the compound `COc1cc2c(=O)c(-c3ccc(O)cc3)coc2cc1O[C@@H]1O[C@H](CO)[C@@H](O)[C@H](O)[C@H]1O` [PCM-0214955], the inhibition at 10 µM under setting [1] was found to be 15.6%.

Regarding `OCCc1ccc(O)c(O)c1` [PCM-0214956], the inhibition at 10 µM under setting [1] is -2.3%.

As for `O=C(O)/C=C/CCCCCCCO` [PCM-0214957], under setting [1], the inhibition at 10 µM came to 3.4%.

With `Cc1cc(O)cc(O[C@@H]2O[C@H](CO)[C@@H](O)[C@H](O)[C@H]2O)c1` [PCM-0214958], the inhibition at 10 µM under setting [1] was -10.1%.

As to `C=C1C(=O)O[C@@H]2C[C@@]3(C)CCCC(=C)[C@@H]3C[C@H]12` [PCM-0214959], the inhibition at 10 µM under setting [1] was determined as 15.9%.

Consider `CC1=C(/C=C/C(C)=C/C=C/C(C)=C/C=C/C=C(C)/C=C/C=C(C)/C=C/C2=C(C)C(=O)[C@@H](O)CC2(C)C)C(C)(C)C[C@H](O)C1=O` [PCM-0214960], for which the inhibition at 10 µM under setting [1] turned out to be 16.6%.

Take `CCCCC[C@H](O)CC(=O)CCc1ccc(O)c(OC)c1` [PCM-0214961]: under setting [1], the inhibition at 10 µM was 1.6%.

Take `COc1ccc(-c2oc3c(CC=C(C)C)c(O)cc(O)c3c(=O)c2O[C@@H]2O[C@@H](C)[C@H](O)[C@@H](O)[C@H]2O)cc1` [PCM-0214963]: under setting [1], the inhibition at 10 µM amounted to 6.2%.

Consider `COc1cc(/C=C/C(=O)O[C@H]2CC[C@]34C[C@]35CC[C@]3(C)[C@@H]([C@H](C)CCC=C(C)C)CC[C@@]3(C)[C@@H]5CC[C@H]4C2(C)C)ccc1O` [PCM-0214964], for which the inhibition at 10 µM under setting [1] came to 16.3%.

In the case of `CC1(C)CCCC2(C)OC(=O)C=C12` (centres unmarked) [PCM-0214965], the inhibition at 10 µM under setting [1] worked out at 8.6%.

With `C[N+]1(C)CCC[C@H]1C(=O)[O-]` [PCM-0214966], the inhibition at 10 µM under setting [1] is 7.8%.

As for `C[C@@H]1O[C@@H](O[C@H]2[C@H](O[C@H]3CC[C@@]4(C)[C@@H](CC[C@]5(C)[C@@H]4CC=C4[C@@H]6CC(C)(C)CC[C@]6(C(=O)O)CC[C@]45C)[C@]3(C)CO)OC[C@H](O)[C@@H]2O)[C@H](O)[C@H](O)[C@H]1O` [PCM-0214969], the inhibition at 10 µM under setting [1] is -10.9%.

On to `O=c1c2cc(O[C@@H]3O[C@H](CO)[C@@H](O)[C@H](O)[C@H]3O)c(O)cc2oc2cc(O)c([C@@H]3O[C@H](CO)[C@@H](O)[C@H](O)[C@H]3O)c(O)c12` [PCM-0214972], for which, under setting [1], the inhibition at 10 µM is -3.1%.

`CC1(C)OC(=O)C=C[C@]2(C)[C@H]3CC[C@@]4(C)[C@H](c5ccoc5)OC(=O)[C@H]5O[C@]54[C@]3(C)C(=O)C[C@@H]12` [PCM-0214973]: the inhibition at 10 µM under setting [1] came out at 11.7%.

Consider `CC1(C)C=Cc2c(ccc3c2OC[C@@H](c2ccc(O)cc2O)C3)O1` [PCM-0214974], for which, under setting [1], the inhibition at 10 µM is 70.3%.

Regarding `COc1cc(C[C@@H](COC2OC(CO)C(O)C(O)C2O)[C@@H](COC2OC(CO)C(O)C(O)C2O)Cc2ccc(O)c(OC)c2)ccc1O` (some centres unmarked) [PCM-0214976], under setting [1], the inhibition at 10 µM was 2.3%.

Regarding `COC1=C[C@]23CCCN2CCc2cc4c(cc2[C@@H]3[C@@H]1O)OCO4` [PCM-0214978], the inhibition at 10 µM (read-out: BTK inhibition (%)) was found to be 0%.

`O=C1C[C@@H](c2ccc(O)cc2)Oc2cc(O)ccc21` [PCM-0214979]: the inhibition at 10 µM under setting [1] is -9.3%.

Regarding `O=C1C[C@@H](c2ccc(O[C@@H]3O[C@H](CO)[C@@H](O)[C@H](O)[C@H]3O)cc2)Oc2cc(O)ccc21` [PCM-0214980], under setting [1], the inhibition at 10 µM was 10.9%.

With `CC(=O)O[C@@]12CO[C@@H]1C[C@H](O)[C@@]1(C)C(=O)[C@H](O)C3=C(C)[C@@H](OC(=O)[C@H](O)[C@@H](NC(=O)c4ccccc4)c4ccccc4)C[C@@](O)([C@@H](OC(=O)c4ccccc4)[C@H]21)C3(C)C` [PCM-0214981], the inhibition at 10 µM under setting [1] was determined as 9.3%.

For the compound `O=C(O)c1ccc(O)cc1` [PCM-0214982], under setting [1], the inhibition at 10 µM is -10.9%.

Turning to `O=c1[nH]cnc2c1ncn2[C@H]1C[C@H](O)[C@@H](CO)O1` [PCM-0214983], the inhibition at 10 µM under setting [1] is 0%.

Take `CC1(C)CC[C@]2(C(=O)O)[C@H](O)C[C@]3(C)C(=CC[C@@H]4[C@@]5(C)CC[C@H](O)C(C)(C)[C@@H]5CC[C@]43C)[C@@H]2C1` [PCM-0214984]: the inhibition at 10 µM under setting [1] came out at 24.8%.

Consider `COc1ccc(-c2cc(=O)c3c(O)c(OC)c(O)cc3o2)cc1OC` [PCM-0214985], for which the inhibition at 10 µM under setting [1] worked out at 72.4%.

With `CC(=O)OCCc1ccc(O)c(O)c1` [PCM-0214986], the inhibition at 10 µM under setting [1] is -9.7%.

As for `O=C(O)CCc1ccc(O)cc1O` [PCM-0214987], the inhibition at 10 µM under setting [1] was -10.9%.

For the compound `C[C@H]1CC(=O)C[C@@H]2CC[C@H]3[C@@H]4CC[C@H](O)[C@@]4(C)CC[C@@H]3[C@]21C` [PCM-0214988], the inhibition at 10 µM (read-out: BTK inhibition (%)) is -20.2%.

In the case of `CC(C)=CCC[C@](C)(O[C@@H]1O[C@H](CO)[C@@H](O)[C@H](O)[C@H]1O)[C@H]1CC[C@]2(C)[C@@H]1[C@H](O)C[C@@H]1[C@@]3(C)CC[C@H](O)C(C)(C)[C@@H]3[C@@H](O[C@@H]3O[C@H](CO)[C@@H](O)[C@H](O)[C@H]3O[C@@H]3O[C@@H](C)[C@H](O)[C@@H](O)[C@H]3O)C[C@]12C` [PCM-0214989], the inhibition at 10 µM under setting [1] was -8.6%.

On to `Oc1cccc(O)c1O` [PCM-0214990], for which the inhibition at 10 µM under setting [1] is -12.4%.

For `CCO[C@H]1O[C@@H]2O[C@@]3(C)CC[C@H]4[C@H](C)CC[C@@H]([C@H]1C)[C@@]24OO3` [PCM-0214993], under setting [1], the inhibition at 10 µM is -16.3%.

For the compound `O=c1ccc2ccc3occc3c2o1` [PCM-0214995], the inhibition at 10 µM (read-out: BTK inhibition (%)) is -19.3%.

For `COC(=O)/C=C/c1ccc(O)cc1` [PCM-0214996], under setting [1], the inhibition at 10 µM turned out to be 0%.

Turning to `CC1=C[C@@]2(O)O[C@@]3(CC2=C(C)C)[C@@H](C)CC[C@@H]13` [PCM-0214997], the inhibition at 10 µM under setting [1] amounted to 20.7%.

For the compound `COc1cc(O)cc2c1C(=O)C[C@@H](c1ccccc1)O2` [PCM-0214998], the inhibition at 10 µM under setting [1] is -12.5%.

For the compound `COc1ccc(-c2cc(=O)c3c(O)c(OC)c(O)c(OC)c3o2)cc1` [PCM-0214999], the inhibition at 10 µM under setting [1] came out at 80.7%.

With `C/C=C(/C)C(=O)O` [PCM-0215002], the inhibition at 10 µM under setting [1] came to 14.5%.

Regarding `C=C1CC[C@@H]2[C@](C)(CO)[C@H](O)CC[C@@]2(C)[C@H]1C/C=C1\C=COC1=O` [PCM-0215003], under setting [1], the inhibition at 10 µM is 14%.

As for `O=c1c2cc(O)c(O)cc2oc2cc(O)c([C@@H]3O[C@H](CO)[C@@H](O)[C@H](O)[C@H]3O)c(O)c12` [PCM-0215004], the inhibition at 10 µM under setting [1] was -14.8%.

Regarding `CC1(C)CCC[C@](C)([C@H]2CC[C@]3(C)[C@@H]2[C@H](O)C[C@@H]2[C@@]4(C)CC[C@H](O)C(C)(C)[C@@H]4[C@H](O)C[C@]23C)O1` [PCM-0215005], the inhibition at 10 µM under setting [1] is -2.8%.

Turning to `C[C@@H]1CC[C@@]2(OC1)O[C@H]1C[C@H]3[C@@H]4CC=C5C[C@@H](O[C@@H]6O[C@H](CO)[C@@H](O)[C@H](O[C@@H]7O[C@H](CO)[C@@H](O)[C@H](O)[C@H]7O)[C@H]6O[C@@H]6O[C@@H](C)[C@H](O)[C@@H](O)[C@H]6O)CC[C@]5(C)[C@H]4CC[C@]3(C)[C@H]1[C@@H]2C` [PCM-0215006], the inhibition at 10 µM under setting [1] is -3.1%.

As for `C[C@@H]1O[C@@H](O[C@H]2[C@H](O[C@H]3CC[C@@]4(C)[C@@H](CC[C@]5(C)[C@@H]4CC=C4[C@@H]6CC(C)(C)CC[C@]6(C(=O)O[C@@H]6O[C@H](CO[C@@H]7O[C@H](CO)[C@@H](O)[C@H](O)[C@H]7O)[C@@H](O)[C@H](O)[C@H]6O)CC[C@]45C)[C@]3(C)CO)OC[C@H](O)[C@@H]2O)[C@H](O)[C@H](O[C@@H]2O[C@H](CO)[C@@H](O[C@@H]3O[C@H](CO)[C@@H](O)[C@H](O)[C@H]3O)[C@H](O)[C@H]2O)[C@H]1O` [PCM-0215007], the inhibition at 10 µM under setting [1] is -12.5%.

With `C[C@@H]1O[C@@H](O[C@H]2[C@H](O[C@H]3CC[C@@]4(C)[C@@H](CC[C@]5(C)[C@@H]4CC=C4[C@@H]6CC(C)(C)CC[C@]6(C(=O)O[C@@H]6O[C@H](CO[C@@H]7O[C@H](CO)[C@@H](O[C@@H]8O[C@@H](C)[C@H](O)[C@@H](O)[C@H]8O)[C@H](O)[C@H]7O)[C@@H](O)[C@H](O)[C@H]6O)CC[C@]45C)[C@]3(C)CO)OC[C@H](O)[C@@H]2O)[C@H](O)[C@H](O)[C@H]1O` [PCM-0215008], the inhibition at 10 µM under setting [1] was -10.1%.

For the compound `CC(C)(O)[C@@H]1CC[C@](C)([C@H]2[C@@H](O)C[C@@]3(C)[C@@H]4C[C@H](O[C@@H]5O[C@H](CO)[C@@H](O)[C@H](O)[C@H]5O)[C@H]5C(C)(C)[C@@H](O[C@@H]6OC[C@@H](O)[C@H](O)[C@H]6O)CC[C@@]56C[C@@]46CC[C@]23C)O1` [PCM-0215009], the inhibition at 10 µM under setting [1] turned out to be 12.5%.

Turning to `C[C@H]1CC[C@@]2(O)C(C)(C)[C@@H]3CC[C@@]2(C)[C@H]1C3` [PCM-0215010], under setting [1], the inhibition at 10 µM came out at 2.8%.
